Source: patent US12509452B2, “Substituted-isoxazoline-containing aromatic compound, preparation method therefor, herbicidal composition and use thereof” (QINGDAO KINGAGROOT CHEMICAL COMPOUND CO., LTD., priority 2019, dated 2025)

Key:
Assay in all cases: weeding effect in post-emergence stage
Assay type in all cases: in vivo
[1] = tested on: Rorippa indica
Summary of the method: (§1)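 Weeds grown in soil-filled pots in a greenhouse, sprayed at the 2-3 leaf stage (2 weeks after sowing) with compound in acetone/Tween 80 plus methyl oleate EC (1.5 L/ha) at 500 to 7.5 g a.i./ha. Fresh-weight growth control assessed 3 weeks later, triplicate means, scored on a 0-5 scale.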

[2] = tested on: Conyza japonica
Summary of the method: as §1

[3] = tested on: Alopecurus japonicus
Summary of the method: as §1

[4] = tested on: Beckmannia syzigachne
Summary of the method: as §1

SMILES | weeding effect in post-emergence stage, Rorippa indica (activity level) ([1]; dose 15 g a.i./ha) | weeding effect in post-emergence stage, Conyza japonica (activity level) ([2]; dose 15 g a.i./ha) | weeding effect in post-emergence stage, Alopecurus japonicus (activity level) ([3]; dose 15 g a.i./ha) | weeding effect in post-emergence stage, Beckmannia syzigachne (activity level) ([4]; dose 15 g a.i./ha) | weeding effect in post-emergence stage, Rorippa indica (activity level) ([1]; dose 125 g a.i./ha) | weeding effect in post-emergence stage, Conyza japonica (activity level) ([2]; dose 125 g a.i./ha) | weeding effect in post-emergence stage, Alopecurus japonicus (activity level) ([3]; dose 125 g a.i./ha) | weeding effect in post-emergence stage, Beckmannia syzigachne (activity level) ([4]; dose 125 g a.i./ha)
CCOC(=O)[C@@]1(COC=O)CC(c2cc(-n3c(=O)cc(C(F)(F)F)n(C)c3=O)c(F)cc2Cl)=NO1 [218(S)] | 5 (Level 5: growth control rate is above 85%) | 5 (Level 5: growth control rate is above 85%) | 5 (Level 5: growth control rate is above 85%) | 5 (Level 5: growth control rate is above 85%) | – | – | – | –
CCOC(=O)[C@@]1(COC(=O)C(=O)O)CC(c2cc(-n3c(=O)cc(C(F)(F)F)n(C)c3=O)c(F)cc2Cl)=NO1 [220(S)] | 5 (Level 5: growth control rate is above 85%) | 5 (Level 5: growth control rate is above 85%) | 5 (Level 5: growth control rate is above 85%) | 5 (Level 5: growth control rate is above 85%) | – | – | – | –
COC(=O)[C@]1(OC)CC(c2cc(-n3c(=O)cc(C(F)(F)F)n(C)c3=O)c(F)cc2Cl)=NO1 [226(S)] | 5 (Level 5: growth control rate is above 85%) | 5 (Level 5: growth control rate is above 85%) | 5 (Level 5: growth control rate is above 85%) | 5 (Level 5: growth control rate is above 85%) | – | – | – | –
CCOC(=O)[C@]1(CC)CC(c2cc(-n3c(=S)cc(C(F)(F)F)n(C)c3=O)c(F)cc2Cl)=NO1 [228(S)] | – | – | – | – | 5 (Level 5: growth control rate is above 85%) | 5 (Level 5: growth control rate is above 85%) | 5 (Level 5: growth control rate is above 85%) | 5 (Level 5: growth control rate is above 85%)
CCOC(=O)[C@]1(CC)CC(c2cc(-n3c(=O)cc(C(F)(F)F)n(C)c3=S)c(F)cc2Cl)=NO1 [229(S)] | 5 (Level 5: growth control rate is above 85%) | 5 (Level 5: growth control rate is above 85%) | 5 (Level 5: growth control rate is above 85%) | 5 (Level 5: growth control rate is above 85%) | – | – | – | –
CCOC(=O)C1(C)CC(c2cc(-n3c(=O)cc(C(F)(F)F)n(C)c3=O)c(F)cc2Cl)=NO1 (stereo not shown) [Compound 1-9] | 5 (Level 5: growth control rate is above 85%) | 5 (Level 5: growth control rate is above 85%) | 5 (Level 5: growth control rate is above 85%) | 5 (Level 5: growth control rate is above 85%) | – | – | – | –
CCOC(=O)CCC1(C)CC(c2cc(-n3c(=O)cc(C(F)(F)F)n(C)c3=O)c(F)cc2Cl)=NO1 (stereo not shown) [Compound 1-37] | 5 (Level 5: growth control rate is above 85%) | 5 (Level 5: growth control rate is above 85%) | 5 (Level 5: growth control rate is above 85%) | 5 (Level 5: growth control rate is above 85%) | – | – | – | –
CCOC(=O)CCCC1(C)CC(c2cc(-n3c(=O)cc(C(F)(F)F)n(C)c3=O)c(F)cc2Cl)=NO1 (stereo not shown) [Compound 1-39] | 5 (Level 5: growth control rate is above 85%) | 5 (Level 5: growth control rate is above 85%) | 5 (Level 5: growth control rate is above 85%) | 5 (Level 5: growth control rate is above 85%) | – | – | – | –
COC(=O)C1(C)CC(c2cc(-n3c(=O)n(C)c(=S)n(C)c3=O)c(F)cc2Cl)=NO1 (stereo not shown) [Compound 1-60] | 5 (Level 5: growth control rate is above 85%) | 5 (Level 5: growth control rate is above 85%) | 5 (Level 5: growth control rate is above 85%) | 5 (Level 5: growth control rate is above 85%) | – | – | – | –
CCOC(=O)C1(C)CC(c2cc(-n3c(=O)n(C)c(=S)n(C)c3=O)c(Cl)cc2Cl)=NO1 (stereo not shown) [Compound 1-61] | 5 (Level 5: growth control rate is above 85%) | 5 (Level 5: growth control rate is above 85%) | 5 (Level 5: growth control rate is above 85%) | 5 (Level 5: growth control rate is above 85%) | – | – | – | –
CCOC(=O)[C@]1(C)CC(c2cc(-n3c(=O)n(C)c(=S)n(C)c3=O)c(F)cc2Cl)=NO1 [Compound 1-62] | 5 (Level 5: growth control rate is above 85%) | 5 (Level 5: growth control rate is above 85%) | 5 (Level 5: growth control rate is above 85%) | 5 (Level 5: growth control rate is above 85%) | – | – | – | –
CCOC(=O)C1(C)CC(c2cc(-n3c(=O)n(CC)c(=S)n(CC)c3=O)c(F)cc2Cl)=NO1 (stereo not shown) [Compound 1-64] | 5 (Level 5: growth control rate is above 85%) | 5 (Level 5: growth control rate is above 85%) | 5 (Level 5: growth control rate is above 85%) | 5 (Level 5: growth control rate is above 85%) | – | – | – | –
CCOC(=O)C1(C)CC(c2cc(-n3c(=O)n(C(C)C)c(=S)n(C(C)C)c3=O)c(F)cc2Cl)=NO1 (stereo not shown) [Compound 1-65] | 5 (Level 5: growth control rate is above 85%) | 5 (Level 5: growth control rate is above 85%) | 5 (Level 5: growth control rate is above 85%) | 5 (Level 5: growth control rate is above 85%) | – | – | – | –
